Results reported in patent US20250186541A1, “DLL3 TARGETING PEPTIDES AND CONSTRUCTS THEREOF” (MARIANA ONCOLOGY INC., priority 2023, published 2025).
Numbered stars: 1 amine (or outer) side, 2 acyl side, 3 side chain; on linkers, the order of the positions; unused ones are H or OH. Bridge positions count the residues as written; N and C are the ends. Square brackets hold non-standard residues; d marks the D form. Peptide text beside a SMILES is read from it. * marks the point of attachment. Ala(piperidin-4-yl) = O=C([C@H](CC1CCN([*:3])CC1)N[*:1])[*:2]; DOTA = O=C(O)CN1CCN(CC(=O)O)CCN(CC(=O)*)CCN(CC(=O)O)CC1; Trp(7-Me) = Cc1cccc2c(C[C@H](N)C(=O)O)c[nH]c12; Phe(3-F) = N[C@@H](Cc1cccc(F)c1)C(=O)O; 1Nal = N[C@@H](Cc1cccc2ccccc12)C(=O)O; 2Nal = N[C@@H](Cc1ccc2ccccc2c1)C(=O)O; NMetBuAla = CN[C@@H](CC(C)(C)C)C(=O)O; tBuAla = CC(C)(C)C[C@H](N)C(=O)O; NMeQ = CN[C@@H](CCC(N)=O)C(=O)O; AllylGly = C=CC[C@H](N)C(=O)O; Chg = N[C@H](C(=O)O)C1CCCCC1; Pen = CC(C)(S)[C@H](N)C(=O)O; αMeP = C[C@@]1(C(=O)O)CCCN1; Pip = O=C(O)[C@@H]1CCCCN1; αMeS = C[C@](N)(CO)C(=O)O; Ahx = NCCCCCC(=O)O

Molecular target: T1, human DLL3 (Homo sapiens, UniProt Q9NYJ7)
T1 construct: biotin (biotinylated)
T1 sequence (Q9NYJ7 27-618): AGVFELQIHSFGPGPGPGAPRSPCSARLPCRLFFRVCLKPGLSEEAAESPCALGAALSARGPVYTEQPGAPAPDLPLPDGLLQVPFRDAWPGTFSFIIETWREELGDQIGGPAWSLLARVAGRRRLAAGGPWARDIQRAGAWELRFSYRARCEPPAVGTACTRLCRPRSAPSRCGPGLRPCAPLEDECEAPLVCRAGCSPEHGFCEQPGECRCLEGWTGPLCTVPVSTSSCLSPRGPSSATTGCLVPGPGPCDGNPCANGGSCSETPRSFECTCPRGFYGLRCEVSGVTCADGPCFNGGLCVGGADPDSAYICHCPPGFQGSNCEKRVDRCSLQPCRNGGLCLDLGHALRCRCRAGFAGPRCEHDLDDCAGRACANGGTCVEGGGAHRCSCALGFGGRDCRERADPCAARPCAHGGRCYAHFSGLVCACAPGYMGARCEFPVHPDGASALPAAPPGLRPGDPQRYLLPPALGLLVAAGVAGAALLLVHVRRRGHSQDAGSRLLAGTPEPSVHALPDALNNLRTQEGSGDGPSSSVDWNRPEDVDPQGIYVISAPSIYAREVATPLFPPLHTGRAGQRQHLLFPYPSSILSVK
Experiment: Affinity determination by Surface Plasmon Resonance (SPR), Biacore, 1:1 binding model
Details: biotinylated human DLL3 on streptavidin chip, 25° C.; NB = nonbinding
Procedure: Example 3. Binding Affinity of Targeting Moieties Polypeptides to DLL3 Affinity Determination by Surface Plasmon Resonance (SPR)
SPR studies were performed on the compounds disclosed herein using the following protocol. […] Biotinylated target ligand human DLL3 was immobilized on a streptavidin sensor chip. A reference surface was set up for nonspecific binding and refractive index changes. For analysis of the kinetics of interactions, varying concentrations of samples were injected at a flow rate of 100 μL/min using running buffer containing 20 mM phosphate buffer with 2.7 mM KCl, 137 mM NaCl, 0.05% Surfactant P20 and 2% DMSO. Sensorgram curves were fitted with 1:1 binding model, and affinity and kinetic parameters were obtained using Biacore Insight evaluation 4.0. software.

Row | Compound | Kd [nM]
1 | CC(=O)N[C@H](C)C(=O)N[C@@H](CO)C(=O)N[C@@H](CC(=O)O)C(=O)N[C@H]1CSSC[C@@H](C(=O)N2CCC[C@@]2(C)C(=O)N[C@@H](Cc2ccccc2)C(=O)N[C@@H](CC(=O)O)C(N)=O)NC(=O)[C@H](CC(N)=O)NC(=O)[C@H](Cc2ccc3ccccc3c2)NC(=O)[C@H](CC2CCN(C(=O)CN3CCN(CC(=O)O)CCN(CC(=O)O)CCN(CC(=O)O)CC3)CC2)NC(=O)[C@H](CC(C)(C)C)NC(=O)[C@H](Cc2cccc3ccccc23)NC1=O [Cpd #157, Ac-(D-Ala)-S-D-C(3)-(1Nal)-(t-Bu-Ala)-[3-(4-piperidinyl-DOTA)-Ala]-(2Nal)-N-C(3)-(aMe-P)-F -D-CONH2] (Ac-[dA]SDC[1Nal][tBuAla][Ala(piperidin-4-yl)](DOTA)[2Nal]NC[αMeP]FD-NH2; disulfide 4-10) | 0.18
2 | C[C@@H](NC(=O)CN1CCN(CC(=O)O)CCN(CC(=O)O)CCN(CC(=O)O)CC1)C(=O)N[C@@H](CO)C(=O)N[C@@H](CC(=O)O)C(=O)N[C@H]1C/C=C/C[C@@H](C(=O)N2CCC[C@@]2(C)C(=O)N[C@@H](Cc2ccccc2)C(=O)N[C@@H](CC(=O)O)C(N)=O)NC(=O)[C@H](CC(N)=O)NC(=O)[C@H](Cc2ccc3ccccc3c2)NC(=O)[C@H](CC2CCNCC2)NC(=O)[C@H](CC(C)(C)C)NC(=O)[C@H](Cc2cccc3ccccc23)NC1=O [Cpd #196, DOTA-(D-Ala)-S-D-AllyG(4)-(1Nal)-(t-Bu-Ala)-[3-(4-piperidinyl)-Ala]-(2Nal)-N-AllyG(4)-(aMe-P)-F-D-CONH2] ({DOTA}-[dA]SD[AllylGly][1Nal][tBuAla][Ala(piperidin-4-yl)][2Nal]N[AllylGly][αMeP]FD-NH2; staple (E) 4-10) | 0.52
3 | CC(=O)N[C@H](C(=O)N[C@@H](CO)C(=O)N[C@@H](CC(=O)O)C(=O)N[C@H]1CSSC[C@@H](C(=O)N2CCC[C@@H]2C(=O)N[C@@H](Cc2ccccc2)C(=O)N[C@@H](CC(=O)O)C(=O)N[C@H](CCCCNC(=O)CN2CCN(CC(=O)O)CCN(CC(=O)O)CCN(CC(=O)O)CC2)C(N)=O)NC(=O)[C@H](CC(N)=O)NC(=O)[C@H](Cc2c[nH]c3ccccc23)NC(=O)[C@H](CCC(N)=O)NC(=O)[C@H](CC(C)C)NC(=O)[C@H](Cc2cccc3ccccc23)NC1=O)C1CCCCC1 [compound 116, Ac-(Chg)-S-D-C(3)-(1Nal)-L-Q-W-N-C(3)-(D-Pro)-F-D-D-Lys(DOTA)-CONH2] (Ac-[Chg]SDC[1Nal]LQWNC[dP]FD[dK](DOTA)-NH2; disulfide 4-10) | > 30
4 | CC(C)C[C@@H]1NC(=O)[C@H](Cc2c[nH]c3ccccc23)NC(=O)[C@@H](NC(=O)[C@H](CC(=O)O)NC(=O)[C@H](CO)NC(=O)CCCCCNC(=O)CN2CCN(CC(=O)O)CCN(CC(=O)O)CCN(CC(=O)O)CC2)CSSC[C@@H](C(=O)N2CCC[C@H]2C(=O)N[C@@H](Cc2ccccc2)C(=O)N[C@@H](CC(=O)O)C(N)=O)NC(=O)[C@H](CC(N)=O)NC(=O)[C@H](Cc2c[nH]c3ccccc23)NC(=O)[C@H](CCC(N)=O)N(C)C1=O [compound 93, DOTA-Ahx-S-D-C(3)-W-L-(NMe-Gln)-W-N-C(3)-P-F-D-CONH2] ({DOTA-Ahx}-SDCWL[NMeQ]WNCPFD-NH2; disulfide 3-9) | > 100
5 | CSCC[C@H](NC(C)=O)C(=O)N[C@@H](CO)C(=O)N[C@@H](CC(=O)O)C(=O)N[C@H]1CSSC[C@@H](C(=O)N2CCCC[C@H]2C(=O)N[C@@H](Cc2ccccc2)C(=O)N[C@@H](CC(=O)O)C(=O)N[C@H](CCCCNC(=O)CN2CCN(CC(=O)O)CCN(CC(=O)O)CCN(CC(=O)O)CC2)C(N)=O)NC(=O)[C@H](CC(N)=O)NC(=O)[C@H](Cc2c[nH]c3ccccc23)NC(=O)[C@H](CCC(N)=O)NC(=O)[C@H](CC(C)C)NC(=O)[C@H](Cc2c[nH]c3ccccc23)NC1=O [compound 47, Ac-M-S-D-C(3)-W-L-Q-W-N-C(3)-(Pip)-F-D-D-Lys(DOTA)-CONH2] (Ac-MSDCWLQWNC[Pip]FD[dK](DOTA)-NH2; disulfide 4-10) | 26
6 | CC(C)C[C@@H]1NC(=O)[C@H](Cc2c[nH]c3ccccc23)NC(=O)[C@@H](NC(=O)[C@H](CC(=O)O)NC(=O)[C@H](CO)NC(=O)CCCCCNC(=O)CN2CCN(CC(=O)O)CCN(CC(=O)O)CCN(CC(=O)O)CC2)CSSC[C@@H](C(=O)N2CCC[C@H]2C(=O)N[C@@H](Cc2cccc(F)c2)C(=O)N[C@@H](CC(=O)O)C(N)=O)NC(=O)[C@H](CC(N)=O)NC(=O)[C@H](Cc2c[nH]c3ccccc23)NC(=O)[C@H](CCC(N)=O)NC1=O [compound 36, DOTA-Ahx-S-D-C(3)-W-L-Q-W-N-C(3)-P-(3Fluoro-F)-D-CONH2] ({DOTA-Ahx}-SDCWLQWNCP[Phe(3-F)]D-NH2; disulfide 3-9) | 16
7 | CC(=O)N[C@H](C(=O)N[C@@H](CO)C(=O)N[C@@H](CC(=O)O)C(=O)N[C@H]1CSSC[C@@H](C(=O)N[C@@H](CCCCNC(=O)CN2CCN(CC(=O)O)CCN(CC(=O)O)CCN(CC(=O)O)CC2)C(=O)N[C@@H](Cc2ccccc2)C(=O)N[C@@H](CC(=O)O)C(N)=O)NC(=O)[C@H](CC(N)=O)NC(=O)[C@H](Cc2c[nH]c3ccccc23)NC(=O)[C@H](CCC(N)=O)NC(=O)[C@H](CC(C)C)NC(=O)[C@H](Cc2c[nH]c3ccccc23)NC1=O)C1CCCCC1 [compound 101, Ac-(Chg)-S-D-C(3)-W-L-Q-W-N-C(3)-[L-Lys(DOTA)]-F-D-CONH2] (Ac-[Chg]SDCWLQWNCK(DOTA)FD-NH2; disulfide 4-10) | > 300

Other lines, results leading:

Row | Kd [nM] | Compound
8 | 0.24 | CC(=O)N[C@H](C)C(=O)N[C@@](C)(CO)C(=O)N[C@@H](CC(=O)O)C(=O)N[C@H]1CSSC[C@@H](C(=O)N2CCC[C@@]2(C)C(=O)N[C@@H](Cc2ccccc2)C(=O)N[C@@H](CC(=O)O)C(=O)N[C@H](CCCCNC(=O)CN2CCN(CC(=O)O)CCN(CC(=O)O)CCN(CC(=O)O)CC2)C(N)=O)NC(=O)[C@H](CC(N)=O)NC(=O)[C@H](Cc2ccc3ccccc3c2)NC(=O)[C@H](CCC(N)=O)NC(=O)[C@H](CC(C)(C)C)NC(=O)[C@H](Cc2cccc3ccccc23)NC1=O [compound 167, Ac-(D-Ala)-(aMe-Ser)-D-C(3)-(1Nal)-(t-Bu-Ala)-Q-(2Nal)-N-C(3)-(aMe-P)-F-D-[D-Lys(DOTA)]-NH2] (Ac-[dA][αMeS]DC[1Nal][tBuAla]Q[2Nal]NC[αMeP]FD[dK](DOTA)-NH2; disulfide 4-10)
9 | 0.48 | CC(=O)N[C@H](C)C(=O)N[C@@H](CO)C(=O)N[C@@H](CC(=O)O)C(=O)N[C@H]1CSSC[C@@H](C(=O)N2CCC[C@@]2(C)C(=O)N[C@@H](Cc2ccccc2)C(=O)N[C@@H](CC(=O)O)C(=O)N[C@H](CCCCNC(=O)CN2CCN(CC(=O)O)CCN(CC(=O)O)CCN(CC(=O)O)CC2)C(N)=O)NC(=O)[C@H](CC(N)=O)NC(=O)[C@H](Cc2ccc3ccccc3c2)NC(=O)[C@H](CCC(N)=O)NC(=O)[C@H](CC(C)(C)C)NC(=O)[C@H](Cc2c[nH]c3c(C)cccc23)NC1=O [compound 173, Ac-(D-Ala)-S-D-C(3)-(7Me-W)-(t-Bu-Ala)-Q-(2Nal)-N-C(3)-(aMe-P)-F -D-[D-Lys(DOTA)]-NH2] (Ac-[dA]SDC[Trp(7-Me)][tBuAla]Q[2Nal]NC[αMeP]FD[dK](DOTA)-NH2; disulfide 4-10)
10 | > 30 | CC(=O)N[C@@H](CO)C(=O)N[C@@H](CC(=O)O)C(=O)N[C@H]1C/C=C/C[C@@H](C(=O)N2CCC[C@@]2(C)C(=O)N[C@@H](Cc2ccccc2)C(=O)N[C@@H](CC(=O)O)C(=O)N[C@H](CCCCNC(=O)CN2CCN(CC(=O)O)CCN(CC(=O)O)CCN(CC(=O)O)CC2)C(N)=O)NC(=O)[C@H](CC(N)=O)NC(=O)[C@H](Cc2ccc3ccccc3c2)NC(=O)[C@H](CC2CCNCC2)NC(=O)[C@H](CC(C)(C)C)N(C)C(=O)[C@H](Cc2cccc3ccccc23)NC1=O [compound 189, Ac-S-D-AllyG(4)-(1Nal)-(NMe-Tba)-[3-(4-piperidinyl)-Ala]-(2Nal)-N-AllyG(4)-(aMe-P)-F -D-[D-Lys(DOTA)]-NH2] (Ac-SD[AllylGly][1Nal][NMetBuAla][Ala(piperidin-4-yl)][2Nal]N[AllylGly][αMeP]FD[dK](DOTA)-NH2; staple (E) 3-9)
11 | 224 | CC(=O)N[C@H](C)C(=O)N[C@@H](CO)C(=O)N[C@@H](CC(=O)O)C(=O)N[C@@H]1C(=O)N[C@@H](Cc2cccc3ccccc23)C(=O)N[C@@H](CC(C)(C)C)C(=O)N[C@@H](CCC(N)=O)C(=O)N[C@@H](Cc2ccc3ccccc3c2)C(=O)N[C@@H](CC(N)=O)C(=O)N[C@H](C(=O)N2CCC[C@@]2(C)C(=O)N[C@@H](Cc2ccccc2)C(=O)N[C@@H](CC(=O)O)C(=O)N[C@H](CCCCNC(=O)CN2CCN(CC(=O)O)CCN(CC(=O)O)CCN(CC(=O)O)CC2)C(N)=O)CSSC1(C)C [compound 162, Ac-(D-Ala)-S-D-Pen(3)-(1Nal)-(t-Bu-Ala)-Q-(2Nal)-N-C(3)-(aMe-P)-F -D-D-Lys(DOTA)-CONH2] (Ac-[dA]SD[Pen][1Nal][tBuAla]Q[2Nal]NC[αMeP]FD[dK](DOTA)-NH2; disulfide 4-10)
